# Measurements taken from ChEMBL document CHEMBL6127088, “Novel 2-aminothiazole analogues both as polymyxin E synergist and antimicrobial agent against multidrug-resistant Gram-positive bacteria” (2024).
# Activity calls are given as the source filed them. The calls are words filed in the database; no cut-off is given here.
# Assays:
# Acinetobacter baumannii [1] = test: Antimicrobial activity against Acinetobacter baumannii ATCC 19606 incubated for 18 hrs by broth microdilution method; format: functional
# Acinetobacter baumannii [2] = test: Synergistic antimicrobial activity against Acinetobacter baumannii ATCC 19606 assessed as fractional inhibitory concentration index in presence of polymyxin E incubated for 18 to 20 hrs by chequerboard assay; format: functional; conditions: time 18-20 hrs
# Staphylococcus aureus = test: Antimicrobial activity against methicillin/ofloxacin-resistant Staphylococcus aureus ATCC 43300 assessed as minimum inhibitory concentration incubated for 18 hrs by broth microdilution method; format: functional
# Enterococcus faecalis [3] = test: Antimicrobial activity against vancomycin-resistant Enterococcus faecalis ATCC 51299 assessed as minimum inhibitory concentration incubated for 18 hrs by broth microdilution method; format: functional
# Bacillus subtilis [4] = test: Antimicrobial activity against Bacillus subtilis ATCC 20678 incubated for 18 hrs by broth microdilution method; format: functional
# Acinetobacter baumannii [5] = test: Antibacterial activity against Acinetobacter baumannii ATCC 19606 infected in female Balb/c mouse model assessed as increase in animal survival at 64 mg/kg, iv administered every 12 hrs and measured for 7 days; format: functional, organism-based
# Acinetobacter baumannii [6] = test: Synergistic antibacterial activity against Acinetobacter baumannii ATCC 19606 infected in female Balb/c mouse model assessed as increase in animal survival at 64 mg/kg, iv administered every 12 hrs in presence of 0.5 mg/kg polymyxin-E and measured for 7 days; format: functional, organism-based
# Acinetobacter baumannii [7] = test: Synergistic antibacterial activity against Acinetobacter baumannii ATCC 19606 assessed as fold change in polymyxin-E MIC at 16 microg/ml incubated for 18 hrs by broth microdilution method relative to polymyxin-E alone; format: functional; conditions: dose 16 µg/ml
# Acinetobacter baumannii [8] = test: Synergistic antibacterial activity against Acinetobacter baumannii ATCC 19606 assessed as fold change in polymyxin-E MIC at 2 microg/ml incubated for 18 hrs by broth microdilution method relative to polymyxin-E alone; format: functional; conditions: dose 2 µg/ml
# Bacillus subtilis [9] = test: Antibacterial activity against Bacillus subtilis 168 assessed as inhibition of bacterial growth incubated for 18 hrs by broth microdilution method; format: functional
# Bacillus subtilis [10] = test: Antibacterial activity against Bacillus subtilis CMCC(B) 63501 assessed as inhibition of bacterial growth incubated for 18 hrs by broth microdilution method; format: functional
# Bacillus subtilis [11] = test: Antibacterial activity against Bacillus subtilis ATCC 6633 assessed as inhibition of bacterial growth incubated for 18 hrs by broth microdilution method; format: functional
# [12] = system: Lacticaseibacillus rhamnosus; test: Antibacterial activity against Lactobacillus rhamnosus assessed as inhibition of bacterial growth incubated for 18 hrs by broth microdilution method; format: functional
# [13] = system: Lactiplantibacillus plantarum; test: Antibacterial activity against Lactobacillus plantarum assessed as inhibition of bacterial growth incubated for 18 hrs by broth microdilution method; format: functional
# Enterococcus faecalis [14] = test: Antibacterial activity against Enterococcus faecalis ATCC 51299 assessed as inhibition of bacterial growth incubated for 18 hrs by broth microdilution method; format: functional
# Enterococcus faecalis [15] = test: Antibacterial activity against Enterococcus faecalis ATCC 29212 assessed as inhibition of bacterial growth incubated for 18 hrs by broth microdilution method; format: functional
# [16] = system: Mycolicibacterium smegmatis; test: Antibacterial activity against Mycobacterium smegmatis MC 2155 assessed as inhibition of bacterial growth incubated for 18 hrs by broth microdilution method; format: functional
# [17] = system: Mycolicibacterium smegmatis; test: Antibacterial activity against Mycobacterium smegmatis ATCC 704 assessed as inhibition of bacterial growth incubated for 18 hrs by broth microdilution method; format: functional
# [18] = system: Mycolicibacterium smegmatis; test: Antibacterial activity against Mycobacterium smegmatis ARC 700044 assessed as inhibition of bacterial growth incubated for 18 hrs by broth microdilution method; format: functional
# Listeria monocytogenes = test: Antibacterial activity against Listeria monocytogenes assessed as inhibition of bacterial growth incubated for 18 hrs by broth microdilution method; format: functional
SMILES,MIC (Acinetobacter baumannii [1]) [µg/mL],fractional inhibitory concentration index (FICI) (Acinetobacter baumannii [2]),MIC (Staphylococcus aureus) [µg/mL],MIC (Enterococcus faecalis [3]) [µg/mL],MIC (Bacillus subtilis [4]) [µg/mL],further results
Fc1ccc(-c2csc(Nc3ccc(C(F)(F)F)cc3)n2)c(F)c1,> 256,0.14,4,4,4,Activity (Acinetobacter baumannii [5]): inactive; Activity (Acinetobacter baumannii [6]): inactive; fold change (FC) (Acinetobacter baumannii [7]): 16; fold change (FC) (Acinetobacter baumannii [8]): 8
CN[C@H](CC(C)C)C(=O)N[C@H]1C(=O)N[C@@H](CC(N)=O)C(=O)N[C@H]2C(=O)N[C@H]3C(=O)N[C@H](C(=O)N[C@H](C(=O)O)c4cc(O)cc(O)c4-c4cc3ccc4O)[C@H](O)c3ccc(c(Cl)c3)Oc3cc2cc(c3O[C@@H]2O[C@H](CO)[C@@H](O)[C@H](O)[C@H]2O[C@H]2C[C@](C)(N)[C@H](O)[C@H](C)O2)Oc2ccc(cc2Cl)[C@H]1O [VANCOMYCIN],,,,> 256,1,MIC (Bacillus subtilis [9]): 1 µg/mL; MIC (Bacillus subtilis [10]): 2 µg/mL; MIC (Bacillus subtilis [11]): 1 µg/mL; MIC [12]: 1 µg/mL; MIC [13]: 0.5 µg/mL; MIC (Enterococcus faecalis [14]): 2 µg/mL; MIC (Enterococcus faecalis [15]): 2 µg/mL; MIC [16]: 2 µg/mL; MIC [17]: 1 µg/mL; MIC [18]: 2 µg/mL; MIC (Listeria monocytogenes): 2 µg/mL
Fc1cc(Nc2nc(-c3cc4ccccc4o3)cs2)cc(C(F)(F)F)c1,> 256,0.187,1,2,2,
CS(=O)(=O)c1ccc(Nc2nc(-c3ccc(F)cc3F)cs2)cc1,> 256,1.031,256,256,256,
Fc1ccc(-c2csc(Nc3cccnc3)n2)c(F)c1,128,1.031,128,256,256,
O=C(Nc1ccccn1)c1csc(Nc2cc(F)cc(C(F)(F)F)c2)n1,64,0.281,256,256,256,
C/C(=N\Nc1ncccc1Cl)c1csc(Nc2cc(F)cc(C(F)(F)F)c2)n1,128,0.094,2,4,1,
